In PMC9412875, “^64Cu-DOTHA2-PSMA, a Novel PSMA PET Radiotracer for Prostate Cancer with a Long Imaging Time Window” (Pharmaceuticals, 2022):
“Also recorded” adds a separate entry of the source.

How the values were obtained:
[1] = Lipophilicity (log D), octanol/PBS partition; type: physicochemical; settings: octanol / PBS pH 7.4, triplicate
Experimental: For log D measurements, 8 MBq of ^64Cu-DOTHA2-PSMA was added to a pre-saturated mixture of phosphate-buffered saline pH 7.4 (500 µL) and octanol (500 µL). Samples were shaken for 30 min at room temperature, centrifuged at 7000 rpm for 5 min, and 100 µL of each phase was counted using a Packard Cobra gamma counter. Experiments were performed in triplicate and the value was presented as log Dmean ± SD, where D was calculated as D = (Average of CPM in octanol / CPM in PBS).

[2] = In vivo stability (blood, urine, liver) after injection; set-up: species or system balb/c mice
Experimental: For metabolite analysis, three balb/c mice were injected with a bolus of 32 MBq of ^64Cu-DOTHA2-PSMA in 0.3 mL saline by tail vein (real IA: 26.4–39.0 MBq). Blood was collected at 1 h p.i. (0.01–0.1 mL) in heparin-coated tubes and then centrifuged at 10,000 rpm for 10 min. Subsequently, the pellet and supernatant were separated, and the relative activity was determined. Radio-TLC was performed to assess the stability of the radiolabeled compound in the blood and in plasma. Two balb/c mice were injected with 45 MBq (real IA: 44.7–45.5 MBq). Urine was collected at 1 h p.i. and analyzed by UPLC. Two balb/c mice were injected with 59 MBq and then euthanized and dissected at 2 h p.i. to harvest the liver (real IA: 58.9–59.3 MBq). The livers were promptly washed and put on ice. They were homogenized with an ice-cold piston with 1 mL of water, extracted, centrifuged (14,000 rpm; 3 min), and mixed with 1 mL of acetonitrile before 4 further cycles of centrifugation and the collection of supernatants. All the pellets were mixed with 1 mL of 10% TFA and centrifuged, and the final supernatant was analyzed by Radio-TLC. The activity was measured in all the supernatants.

[3] = Balb/c mice biodistribution; type: in vivo
Experimental: ^64Cu-DOTHA2-PSMA biodistribution was assessed in balb/c mice (n = 30) by harvesting blood and organs at 1 h, 2 h, 4 h, 24 h, and 48 h p.i. to measure tissue radioactivity and weight. Results were reported as the %IA/g of tissue and compared with the radiotracer used for clinical imaging in our facility, ^68Ga-PSMA-617.
Balb/c mice (n = 30) were injected with a bolus of ^64Cu-DOTHA2-PSMA by the tail vein (in 0.3 mL of saline: 3 MBq for 1 h, 2 h, and 4 h p.i., 7.5 MBq for 24 h p.i. and 21 MBq for 48 h p.i.). Injected activity had to be increased for later time points to ensure reliable detection and reliability in organs with a low uptake, e.g., the brain. At all timepoints, blood was collected using a heparin-coated syringe by femoral vein puncture and mice were then euthanized and dissected. Harvested tissues were rinsed, blotted dry, and then weighted and counted in gamma counter. The results are reported as the %IA per gram of tissue. The biodistribution results were compared with the ^68Ga-PSMA-617 results obtained by our team at 1 h and 2 h p.i.

[4] = system: LNCaP tumor; experiment: PET imaging of LNCaP tumor-bearing mice; type: in vivo, NRG mice
Experimental: All the experiments were conducted according to a protocol approved by the Animal Ethics Committee of the Université de Sherbrooke and were in accordance with the guidelines of the Canadian Council on Animal Care. All animal manipulations that could cause pain, stress, or that required immobilization were performed under isoflurane anesthesia (2% in 2 L/min oxygen) with a heating pad or bed. When protocols required animal death (e.g., biodistribution) or ethical limits (e.g., tumor size) were reached, euthanasia was performed by CO2 inhalation under isoflurane anesthesia. […] For PET imaging, NRG mice were used (The Jack Laboratory, 7–10 weeks old, and 19–26 g at time of experiment). A total of 200 µL of a 1:1 Matrigel/PBS mixture containing […] LNCaP cells was injected subcutaneously on each shoulder of NRG mice. Experiments were initiated 2 to 4 weeks after inoculation when tumors reached a diameter between 5 and 10 mm.
Dynamic (0–1 h p.i.) and static (4 h, 20 min long and 24 h p.i., 1h long) PET assays were performed in combination with 5 min CT in NRG mice injected with 8 MBq of ^64Cu-DOTHA2-PSMA in 0.3 mL of saline through the tail vein (LabPET 8/-Triumph; Gamma Medica, Northridge, CA, USA). Blocking was achieved by the co-injection of 20 nmol of ^natCu-DOTHA2-PSMA (n = 3 per group). We selected this blocking agent because its pharmacokinetics are similar to ^64Cu-DOTHA2-PSMA. PET images were reconstructed using the three-dimensional maximum likelihood […] method (MLEM-3D) algorithm with 20 iterations and a 60 mm field-of-view (Gamma Medica). The analyses were conducted using AMIDE software 1.0.4. Quantitative image data were reported as %IA per volume (centimeter cube, cc).

[5] = in mice, 1 h p.i., after 10% TFA

In the case of `CN([O-])C(=O)CN1CCN(CC(=O)NCC2CCC(C(=O)NC(Cc3ccc4ccccc4c3)C(=O)NCCCCC(NC(=O)NC(CCC(=O)O)C(=O)O)C(=O)O)CC2)CCN(CC(=O)N(C)[O-])CCN(CC(=O)N(C)O)CC1.[64Cu+2]` (centres unmarked) [^64Cu-DOTHA2-PSMA], the “log D” value [1] is reported as -0.96 ± 0.61, the “64Cu metabolite observed in the liver” value ([2]; balb/c mice, 2 h p.i., radio-TLC) is reported as 25% and the “tracer form found in urine” value ([2]; balb/c mice, urine 1 h p.i., UPLC) is reported as “intact ^64Cu tracer was found in urine; also recorded: no metabolite was observed in urine”. For the same compound, the “64Cu and 64Cu-DOTHA2-PSMA Bound to Plasma Proteins” value ([2]; in mice, 1 h p.i.) was 48%, the “64Cu dissociation in combined supernatant and plasma proteins” value ([2]; in mice, 1 h p.i.) was 4.58% and the “64Cu released from Proteins” value [2, 5] was 1.98%. The “64Cu-DOTHA2-PSMA Released from Proteins” value [2, 5] was 31%, the “64Cu in the Supernatant” value ([2]; in mice, blood 1 h p.i., % of total plasma signal) was 2.60% and the “free 64Cu in blood (peak in plasma supernatant, radio-TLC)” value ([2]; mice, 1 h p.i.) was 5%. For the same compound, the “free 64Cu in the liver” value ([2]; mice, 2 h p.i., radio-TLC) was “no free ^64Cu was observed; also recorded: free ^64Cu was not seen in liver”, the “kidney uptake difference to 68Ga-PSMA-617 (lower)” value ([3]; 2 h p.i.) was 23.3% and the liver uptake ([3]; 2 h p.i.) was 29.9 ± 5.0 % IA/g. The “liver uptake (peak)” value ([3]; 4 h p.i.) was 30.2 ± 4.2 % IA/g, the “uptake in the kidneys (highest over time points)” value ([3]; up to 48 h p.i.) was “at most 15.8 ± 7.0 % IA/g” and the “tumor uptake (PET)” value ([4]; 1 h p.i., co-injection of blocking agent (20 nmol natCu-DOTHA2-PSMA)) was 4.78 ± 0.96 % IA/cc. For the same compound, the “liver uptake (PET, peak)” value ([4]; 4 h p.i.) was 26.8 ± 5.3 % IA/cc, the “tumor uptake (PET)” value ([4]; 4 h p.i., co-injection of blocking agent (20 nmol natCu-DOTHA2-PSMA)) was 7.46 ± 1.07 % IA/cc and the “tumor uptake (PET)” value ([4]; 24 h p.i., co-injection of blocking agent (20 nmol natCu-DOTHA2-PSMA)) was 8.62 ± 0.74 % IA/cc. For the same compound, the “tumor uptake (PET)” value ([4]; LNCaP tumor, NRG mice, 1 h p.i., non-blocked) was 14.0 ± 5.0 % IA/cc, the “tumor uptake (PET)” value ([4]; LNCaP tumor, NRG mice, 4 h p.i., non-blocked) was 23.8 ± 11.5 % IA/cc and the “tumor uptake (PET)” value ([4]; LNCaP tumor, NRG mice, 24 h p.i., non-blocked) was 18.5 ± 6.6 % IA/cc. The “time of highest tumoral uptake” value ([4]; PET, LNCaP tumor) was 4 h p.i, the “time of peak kidney uptake, calyxes” value ([4]; dynamic PET) was 10 min p.i and the “time of peak kidney uptake, cortex” value ([4]; dynamic PET) was 5 min p.i. For the same compound, the tumor-to-kidney ratios ([4]; from 1 h p.i.) was “greater than 1” and the “time of peak of urinary clearance (kidney calyxes and cortex signals)” value ([4]; time-activity curves) was ≤ 10 min.
